Results on 37 sequences are retold here after the OligoGym collection.

“And” between values parts separate entries of the source, which are not always exact repeats. Equal entries are not always repeated. After the bases stand the sugars from the 5' end (letter, count) and the backbone: PS all phosphorothioate, else s phosphorothioate and o phosphodiester by linkage. Methylation of C is not given here. e = 2'-O-(2-methoxyethyl) (MOE); k = constrained ethyl (cEt); d = 2'-deoxy (DNA)

The target of the first series is IRF4. Particulars: ASO, MM.1R, 0.0625 µM.
As for AAGCTTAGTTATCTGG (sugars k3 d10 k3, PS), the target mRNA inhibition was -13%.

Staying with this series, now noted: ASO, MM.1R, 0.25 µM.
In the case of AAGCTTAGTTATCTGG (sugars k3 d10 k3, PS), the target mRNA inhibition was -10%.

Staying with this series, now noted: ASO, MM.1R, 1 µM.
In the case of “TGTGTATTACTCTTAG (sugars k2 d9 e3 k2, PS)”, the target mRNA inhibition was 41% and 24%.

Regarding CATATACATTGAGGCA (sugars k3 d10 k3, PS), the target mRNA inhibition was determined as 20%.

AAGCTTAGTTATCTGG (sugars k3 d10 k3, PS): the target mRNA inhibition was 35% and 13%.

“AGTGATGTCAGGTTTT (sugars kkdddddddddkekek, PS)”: the target mRNA inhibition stood at 39%.

With “TCTATAGTGTTCCAGG (sugars kdddddddddkekeke, PS)”, the target mRNA inhibition came out at 12%.

On to GTTCACAACAGAGCTG (sugars k3 d10 k3, PS), for which the target mRNA inhibition was -16%.

For the sequence ACACAAGTCTTAGGTG (sugars k3 d10 k3, PS), the target mRNA inhibition is -153%.

Regarding TGCCAGTTCCTTGTGA (sugars k3 d10 k3, PS), the target mRNA inhibition was -2%.

CGCTGAATTGTCATGA (sugars k3 d10 k3, PS): the target mRNA inhibition was -1%.

With TGTAGAAGCCCACAAG (sugars k3 d10 k3, PS), the target mRNA inhibition is -7%.

For the sequence TGCCAAAGAGCCCAAT (sugars k3 d10 k3, PS), the target mRNA inhibition was -19%.

For the sequence “ATGTGATAGCTGAGCT (sugars k2 d9 e3 k2, PS)”, the target mRNA inhibition was determined as 0%.

As to “TTGATGTGATAGCTGA (sugars kdddddddddkekeke, PS)”, the target mRNA inhibition is 34%.

With “GATGTGATAGCTGAGC (sugars kkdddddddddekeke, PS)”, the target mRNA inhibition was found to be 53%.

Consider AACTAATGTCCCCAGG (sugars k3 d10 k3, PS), for which the target mRNA inhibition was -12%.

For the sequence AGTGAGAAAACCCCCC (sugars k3 d10 k3, PS), the target mRNA inhibition was found to be 8%.

As for “ACGGAAGTTTACACTG (sugars e1 k2 d9 k2 e2, PS)”, the target mRNA inhibition was 17%.

The series is the same for the next values; noted with them: ASO, MM.1R, 4 µM.
As to AAGCTTAGTTATCTGG (sugars k3 d10 k3, PS), the target mRNA inhibition came out at 45%.

The series is the same for the next values; noted with them: ASO, SK-MEL-28, 4 µM.
Take TTCCAACAGGCGGACA (sugars k3 d10 k3, PS): the target mRNA inhibition stood at 43%.

As for CCAATTTATGCCATGG (sugars k3 d10 k3, PS), the target mRNA inhibition was determined as 12%.

As to CTGAAGACAATGTTGT (sugars k3 d10 k3, PS), the target mRNA inhibition came to 55%.

For the sequence ATATAACGGTGTTTCA (sugars k3 d10 k3, PS), the target mRNA inhibition amounted to 58%.

GTCCACTGAGTACAAA (sugars k3 d10 k3, PS): the target mRNA inhibition was 13%.

Turning to CATTGAGGCATACAGT (sugars k3 d10 k3, PS), the target mRNA inhibition came out at 55%.

With ACTGGCATCGAGACGG (sugars k3 d10 k3, PS), the target mRNA inhibition was determined as 79%.

Consider GAAAGATTCAGCCTCT (sugars k3 d10 k3, PS), for which the target mRNA inhibition came to 45%.

Consider ACAGGAGCCGCTACAG (sugars k3 d10 k3, PS), for which the target mRNA inhibition came to 31%.

Regarding ACTGAGAGTGCGAGGT (sugars k3 d10 k3, PS), the target mRNA inhibition was -20%.

With GACTACACCTACACAG (sugars k3 d10 k3, PS), the target mRNA inhibition is 32%.

As to TGTTACTTGCCACAGT (sugars k3 d10 k3, PS), the target mRNA inhibition was found to be 39%.

For the sequence ACCAATGGCAGCACCG (sugars k3 d10 k3, PS), the target mRNA inhibition was found to be 61%.

GTTGACACAGGAGCCG (sugars k3 d10 k3, PS): the target mRNA inhibition worked out at 53%.

For CCCACACCAGCCCGGG (sugars k3 d10 k3, PS), the target mRNA inhibition is -6%.

Consider TACAAGCAGTCATCAC (sugars k3 d10 k3, PS), for which the target mRNA inhibition is 29%.

For TTAGAGGACAGTGACT (sugars k3 d10 k3, PS), the target mRNA inhibition is 18%.

Regarding TTAAACAGTGCCCAAG (sugars k3 d10 k3, PS), the target mRNA inhibition worked out at 21%.

As for GTCTACAGAACACAAG (sugars k3 d10 k3, PS), the target mRNA inhibition was 24%.

Consider CTGTAGGGCGACTAAC (sugars k3 d10 k3, PS), for which the target mRNA inhibition turned out to be 49%.
